PMC4727756 (Journal of analytical & bioanalytical techniques, 2015)

Legend:
in vitro = in vitro ADME
Method: Short-term stabilities were also determined for post-preparation QC standards stored at room temperature for 10 hours. The QC results obtained after storage were compared with spiked concentration values by determining the percentage ratios of experimental values divided by spiked values.

[1] = stability of stock and working solutions (LC-MS/MS); type: physicochemical; details: stored at 4°C for at least 6 months
Method: The stabilities of stock and working solutions for both analyte and internal standard were also evaluated. Stock solutions of analyte and IS were stored at −20°C for 9 months.

recovery at 8 h, 1.25 ng/mL (in vitro; rat plasma QC samples, rat plasma, bench top (8 hr) at room temp, 1.25 ng/ml) [%] | recovery at 8 h, 80 ng/mL (in vitro; rat plasma QC samples, rat plasma, bench top (8 hr) at room temp, 80.00 ng/ml) [%] | recovery at 3 days, 1.25 ng/mL (in vitro; rat plasma QC samples, rat plasma, freeze thaw (3 cycles), 1.25 ng/ml) [%] | recovery at 3 days, 80 ng/mL (in vitro; rat plasma QC samples, rat plasma, freeze thaw (3 cycles), 80.00 ng/ml) [%] | recovery at 10 h, 1.25 ng/mL (in vitro; rat, post-extraction (post-preparation) rat plasma QC samples, post extraction (10 hr) at room temp, 1.25 ng/ml) [%] | recovery at 10 h, 80 ng/mL (in vitro; rat, post-extraction (post-preparation) rat plasma QC samples, post extraction (10 hr) at room temp, 80.00 ng/ml) [%] | stability of working solutions ([1]; two QC standards (1.25 and 80 ng/mL)) | stability of working solutions ([1]; 7.5 ng/mL IS) [%] | Compound
103 | 103 | 98.1 | 105 | 102 | 108 | 99.60–105.00% |  | Cc1ccc(C)c(COc2cc(NC(=O)c3cc(C(F)(F)F)cc(C(F)(F)F)c3)ccc2N(C)S(C)(=O)=O)c1 [BMCL26]
 |  |  |  |  |  |  | 115.60 | Cc1ccc(C)c(COc2cc(NC(=O)C3CCCCC3)ccc2N(C)S(C)(=O)=O)c1 [JCC76, N-(3-(2,5-dimethylbenzyloxy)-4-(methylmethylsulfonamido)phenyl)cyclohexanecaboxamide, reference compound]
